# Assays:
# [1] = test system: LPS induced IL-23 (p19/p40) in DC cells differentiated from human PBMC; test: IL23-p19 ELISA, dendritic cells (DC differentiated from human PBMC), IFNγ primed, LPS stimulated; type: cell-based; settings: human PBMC-derived dendritic cells, 1 μg/ml LPS, 18 hours, 10 pt
# Summary of the method: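 Human PBMC-derived DCs (GM-CSF 100 ng/ml + IL-4 20 ng/ml, 7 days) were primed 24 h with IFNγ 50 ng/ml, pre-incubated 1 h with compound, then stimulated 18 h with LPS 1 μg/ml at 37° C. Supernatant IL-23 was measured by sandwich chemiluminescent ELISA (anti-p19 capture, anti-p40 detection); cytotoxicity was checked by CellTiter-Glo.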
# [2] = test system: LPS induced IL23p19 in THP-1 cells; test: LPS Induced IL23p19 in THP-1 Cells (with IFNγ Primed) Assay; type: cell-based; settings: Homo sapiens; THP-1 cells primed with IFNγ 50 ng/mL, 1 μg/mL LPS, 18 hours, 10 pt; read-out: IL23-p19 ELISA, THP1-IFNy, LPS, 10 pt EC50
# Summary of the method: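 THP-1 cells were primed with IFNγ (50 ng/mL, ~18 h), pre-incubated 1 h with compound, then stimulated 18 h with 1 μg/mL LPS at 37° C. Supernatant IL-23p19 was measured by chemiluminescent sandwich ELISA, and EC50 was fitted. Toxicity was checked on the remaining cells with Cell Titer Glo.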
EC50 [2] [nM],Structure (SMILES),EC50 [1] [nM]
145,"O=C(Nc1ccc(N2CCOCC2)cc1N1CCC(F)CC1)c1ccc(-c2cn[nH]c2)o1 [I-5, N-(2-(4-fluoropiperidin-1-yl)-4-morpholinophenyl)-5-(1H-pyrazol-4-yl)furan-2-carboxamide]",182
554,"O=C(Nc1cc(N2CCOCC2)ccc1N1CCCCC1)c1csc(-c2cn[nH]c2)n1 [I-26, N-(5-morpholino-2-(piperidin-1-yl)phenyl)-2-(1H-pyrazol-4-yl)thiazole-4-carboxamide]",847
82.7,"O=C(Nc1ccc(NCCN2CCOCC2)cc1N1CCCCC1)c1ccc(-c2cn[nH]c2)o1 [I-73, N-(4-((2-morpholinoethyl)amino)-2-(piperidin-1-yl)phenyl)-5-(1H-pyrazol-4-yl)furan-2-carboxamide]",175
2690,"O=C(Nc1cnc(N2CCOCC2)cc1N1CCCCC1)c1ccc(-c2cn[nH]c2)o1 [I-43, N-(6-morpholino-4-(piperidin-1-yl)pyridin-3-yl)-5-(1H-pyrazol-4-yl)furan-2-carboxamide]",3450
2990,"O=C(Nc1cc(OCCN2CCOCC2)ccc1N1CCCCC1)c1cccc(-c2cn[nH]c2)n1 [I-27, N-(5-(2-morpholinoethoxy)-2-(piperidin-1-yl)phenyl)-6-(1H-pyrazol-4-yl)picolinamide]",857
51.4,"O=C(Nc1ccc(NCCN2CCOCC2)cc1N1CCCCC1)c1csc(-c2cn[nH]c2)n1 [I-74, N-(4-((2-morpholinoethyl)amino)-2-(piperidin-1-yl)phenyl)-2-(1H-pyrazol-4-yl)thiazole-4-carboxamide]",104
1040,"O=C(Nc1cnc(N2CCOCC2)cc1N1CCCCC1)c1cccc(-c2cn[nH]c2)n1 [I-42, N-(6-morpholino-4-(piperidin-1-yl)pyridin-3-yl)-6-(1H-pyrazol-4-yl)picolinamide]",3080
164,"O=C(Nc1ccc(C(=O)N2CCOCC2)cc1N1CCCCC1)c1csc(-c2cn[nH]c2)n1 [I-47, N-(4-(morpholine-4-carbonyl)-2-(piperidin-1-yl)phenyl)-2-(1H-pyrazol-4-yl)thiazole-4-carboxamide]",2460

# Continued, compound first:
Structure (SMILES),EC50 [2] [nM],EC50 [1] [nM]
"O=C(Nc1cc(C(=O)N2CCOCC2)ccc1N1CCCCC1)c1cccc(-c2cn[nH]c2)n1 [I-57, N-(5-(morpholine-4-carbonyl)-2-(piperidin-1-yl)phenyl)-6-(1H-pyrazol-4-yl)picolinamide]",498,1150
"CN1CCN(c2ccc(NC(=O)c3cccc(-c4cn[nH]c4)n3)c(N3CCCCC3)c2)CC1 [I-1, N-(4-(4-methylpiperazin-1-yl)-2-(piperidin-1-yl)phenyl)-6-(1H-pyrazol-4-yl)picolinamide]",308,843
"O=C(Nc1cc(CCN2CCOCC2)ccc1N1CCCCC1)c1cccc(-c2cn[nH]c2)n1 [I-66, N-(5-(2-morpholinoethyl)-2-(piperidin-1-yl)phenyl)-6-(1H-pyrazol-4-yl)picolinamide]",92.4,41.8
"O=C(Nc1cc(C(=O)N2CCOCC2)ccc1N1CCCCC1)c1csc(-c2cn[nH]c2)n1 [I-59, N-(5-(morpholine-4-carbonyl)-2-(piperidin-1-yl)phenyl)-2-(1H-pyrazol-4-yl)thiazole-4-carboxamide]",253,294
"O=C(Nc1ccc(CC(=O)N2CCOCC2)cc1N1CCCCC1)c1cccc(-c2cn[nH]c2)n1 [I-51, N-(4-(2-morpholino-2-oxoethyl)-2-(piperidin-1-yl)phenyl)-6-(1H-pyrazol-4-yl)picolinamide]",65.6,154
"O=C(Nc1cc(CC(=O)N2CCOCC2)ccc1N1CCCCC1)c1ccc(-c2cn[nH]c2)o1 [I-64, N-(5-(2-morpholino-2-oxoethyl)-2-(piperidin-1-yl)phenyl)-5-(1H-pyrazol-4-yl)furan-2-carboxamide]",3680,1320
"O=C(Nc1ccc(N2CCOCC2)cc1N1CCC(O)CC1)c1csc(-c2cn[nH]c2)n1 [I-12, N-(2-(4-hydroxypiperidin-1-yl)-4-morpholinophenyl)-2-(1H-pyrazol-4-yl)thiazole-4-carboxamide]",84.1,60
"O=C(Nc1ccc(N2CCOCC2)cc1N1CCC(O)CC1)c1ccc(-c2cn[nH]c2)o1 [I-11, N-(2-(4-hydroxypiperidin-1-yl)-4-morpholinophenyl)-5-(1H-pyrazol-4-yl)furan-2-carboxamide]",134,162
"O=C(Nc1ccc(N2CCOCC2)cc1N1CCCC1)c1csc(-c2cn[nH]c2)n1 [I-24, N-(4-morpholino-2-(pyrrolidin-1-yl)phenyl)-2-(1H-pyrazol-4-yl)thiazole-4-carboxamide]",836,794
"O=C(Nc1cc(CCN2CCOCC2)ccc1N1CCCCC1)c1csc(-c2cn[nH]c2)n1 [I-68, N-(5-(2-morpholinoethyl)-2-(piperidin-1-yl)phenyl)-2-(1H-pyrazol-4-yl)thiazole-4-carboxamide]",62.5,47.6
"COc1ccc(N2CCOCC2)cc1NC(=O)c1cccc(-c2cn[nH]c2)n1 [I-39, N-(2-methoxy-5-morpholinophenyl)-6-(1H-pyrazol-4-yl)picolinamide]",6590,3230

# — patent publication US10590121B2, “Kinase inhibitors and methods for making and using” (Rigel Pharmaceuticals, Inc., priority 2017, dated 2020)
